Reference: patent publication US9487510B2, “Substituted heterocyclic acetamides as kappa opioid receptor (KOR) agonists” (Dr. Reddy's Laboratories Ltd., priority 2012, dated 2016)

Target: human KOR receptor (Homo sapiens, UniProt P41145)
Experiment: IP-One HTRF assay, potency of KOR agonists, dose-response in transiently transfected COS-7 cells
Format: cell-based

human KOR receptor, sequence (P41145 whole entry): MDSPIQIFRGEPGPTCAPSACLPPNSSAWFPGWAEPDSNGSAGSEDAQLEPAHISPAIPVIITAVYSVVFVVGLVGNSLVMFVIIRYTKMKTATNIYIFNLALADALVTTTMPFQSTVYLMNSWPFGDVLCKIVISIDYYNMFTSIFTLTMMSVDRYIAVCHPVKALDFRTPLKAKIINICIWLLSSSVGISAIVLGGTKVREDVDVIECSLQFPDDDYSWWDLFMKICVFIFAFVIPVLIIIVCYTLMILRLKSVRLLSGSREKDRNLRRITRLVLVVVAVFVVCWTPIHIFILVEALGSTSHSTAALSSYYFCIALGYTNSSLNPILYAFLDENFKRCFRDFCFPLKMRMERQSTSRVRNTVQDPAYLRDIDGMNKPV

SMILES	EC50
CN(C(=O)Cc1ccc2sc(=O)[nH]c2c1)[C@H](CN1CC[C@H](O)C1)c1cccc(OCC(N)=O)c1 [Example 170, N-((S)-1-(3-(2-amino-2-oxoethoxy)phenyl)-2-((S)-3-hydroxypyrrolidin-1-yl)ethyl)-N-methyl-2-(2-oxo-2,3-dihydrobenzo[d]thiazol-5-yl)acetamide]	≤ 0.05 µM
CN(C(=O)Cc1ccc2c(c1)NC(=O)C2)[C@H](CN1CC[C@H](O)C1)c1cccc(OCC(=O)NS(C)(=O)=O)c1 [Example 27, N-((S)-2-((S)-3-hydroxypyrrolidin-1-yl)-1-(3-(2-(methylsulfonamido)-2-oxoethoxy)phenyl)ethyl)-N-methyl-2-(2-oxoindolin-6-yl)acetamide]	0.051 to 0.1 µM
O=C1COc2ccc(CC(=O)N[C@H](CN3CCCC3)c3ccccc3)cc2N1 [Example 114, (S)-2-(3-oxo-3,4-dihydro-2H-benzo[b][1,4]oxazin-6-yl)-N-(1-phenyl-2-(pyrrolidin-1-yl)ethyl)acetamide]	≤ 0.05 µM
CN(C(=O)Cc1ccc2c(c1)NC(=O)CS2(=O)=O)[C@H](CN1CC[C@H](O)C1)c1ccc(F)c(OC(F)(F)F)c1 [Example 146, 2-(1,1-dioxido-3-oxo-3,4-dihydro-2H-benzo[b][1,4]thiazin-6-yl)-N-((S)-1-(4-fluoro-3-(trifluoromethoxy)phenyl)-2-((S)-3-hydroxypyrrolidin-1-yl)ethyl)-N-methylacetamide]	≤ 0.05 µM
CN(C(=O)Cc1ccc2c(c1)NC(=O)C2)[C@H](CN1CC[C@H](O)C1)c1cccc(OCC(=O)O)c1 [Example 159, 2-(3-((S)-2-((S)-3-hydroxypyrrolidin-1-yl)-1-(N-methyl-2-(2-oxoindolin-6-yl)acetamido)ethyl)phenoxy)acetic acid]	≤ 0.05 µM
CN(C(=O)Cc1ccc2sc(=O)[nH]c2c1)[C@H](CN1CC[C@H](O)C1)c1cccc(-c2ncc[nH]2)c1 [Example 191, N-((S)-1-(3-(1H-imidazol-2-yl)phenyl)-2-((S)-3-hydroxypyrrolidin-1-yl)ethyl)-N-methyl-2-(2-oxo-2,3-dihydrobenzo[d]thiazol-5-yl)acetamide]	≤ 0.05 µM
CN(C(=O)Cc1ccc2ncc(=O)[nH]c2c1)[C@H](CN1CC[C@H](O)C1)c1cc(F)cc(C#N)c1 [Example 200, N-((S)-1-(3-cyano-5-fluorophenyl)-2-((S)-3-hydroxypyrrolidin-1-yl)ethyl)-N-methyl-2-(3-oxo-3,4-dihydroquinoxalin-6-yl)acetamide]	≤ 0.05 µM
O=C(Cc1ccc2c(c1)NC(=O)C2(F)F)N[C@H](CN1CC[C@H](O)C1)c1ccccc1 [Example 13, 2-(3,3-difluoro-2-oxoindolin-6-yl)-N-((S)-2-((S)-3-hydroxypyrrolidin-1-yl)-1-phenylethyl)acetamide]	≥ 1 µM
CN(C(=O)Cc1ccc2c(c1)NC(=O)C(C)(C)S2)[C@H](CN1CC[C@H](O)C1)c1cccc(OC(F)(F)F)c1 [Example 143, 2-(2,2-dimethyl-3-oxo-3,4-dihydro-2H-benzo[b][1,4]thiazin-6-yl)-N-((S)-2-((S)-3-hydroxypyrrolidin-1-yl)-1-(3-(trifluoromethoxy)phenyl)ethyl)-N-methylacetamide]	≤ 0.05 µM
O=C(Cc1ccc2sc(=S)[nH]c2c1)N[C@H](CN1CC[C@H](O)C1)c1ccccc1 [Example 118, N-((S)-2-((S)-3-hydroxypyrrolidin-1-yl)-1-phenylethyl)-2-(2-thioxo-2,3-dihydrobenzo[d]thiazol-5-yl)acetamide]	≤ 0.05 µM
CN(C(=O)Cc1ccc2c(c1)NC(=O)C2)[C@H](CN1CC[C@H](O)C1)c1cccc(-c2ncc[nH]2)c1 [Example 198, N-((S)-1-(3-(1H-imidazol-2-yl)phenyl)-2-((S)-3-hydroxypyrrolidin-1-yl)ethyl)-N-methyl-2-(2-oxoindolin-6-yl)acetamide 2,2,2-trifluoroacetate]	≤ 0.05 µM
CN(C(=O)Cc1ccc2c(c1)NC(=O)CS2)C(CN1CC[C@H](O)C1)C1CCOCC1 (stereo partly drawn) [Example 130, N-(2-((S)-3-hydroxypyrrolidin-1-yl)-1-(tetrahydro-2H-pyran-4-yl)ethyl)-N-methyl-2(3-oxo-3,4-dihydro-2H-benzo[b][1,4]thiazin-6-yl)acetamide]	≤ 0.05 µM
CN(C(=O)Cc1ccc2c(c1)NC(=O)CS2(=O)=O)[C@H](CN1CC[C@H](O)C1)c1cccc(OC(F)F)c1 [Example 11, N-((S)-1-(3-(difluoromethoxy)phenyl)-2-((S)-3-hydroxypyrrolidin-1-yl)ethyl)-2-(1,1-dioxido-3-oxo-3,4-dihydro-2H-benzo[b][1,4]thiazin-6-yl)-N-methylacetamide]	≥ 1 µM
O=C1COc2ccc(CC(=O)N[C@H](CN3CC[C@H](O)C3)c3ccccc3)cc2N1 [Example 2, N-[(1S)-2-[(3S)-3-hydroxypyrrolidin-1-yl]-1-phenylethyl]-2-(3-oxo-3,4-dihydro-2H-1,4-benzoxazin-6-yl)acetamide]	≤ 0.05 µM
CCC#Cc1cccc([C@@H](CN2CC[C@H](O)C2)N(C)C(=O)Cc2ccc3c(c2)NC(=O)C3)c1 [Example 204, N-((S)-1-(3-(but-1-yn-1-yl)phenyl)-2-((S)-3-hydroxypyrrolidin-1-yl)ethyl)-N-methyl-2-(2-oxoindolin-6-yl)acetamide]	≤ 0.05 µM
O=C1CSc2ccc(CC(=O)N[C@H](CN3CC[C@H](O)C3)c3ccccc3)cc2N1 [Example 128, N-((S)-2-((S)-3-hydroxypyrrolidin-1-yl)-1-phenylethyl)-2-(3-oxo-3,4-dihydro-2H-benzo[b][1,4]thiazin-6-yl)acetamide]	≤ 0.05 µM
Cc1cccc([C@@H](CN2CC[C@H](O)C2)N(C)C(=O)Cc2ccc3c(c2)NC(=O)CS3(=O)=O)c1 [Example 145, 2-(1,1-dioxido-3-oxo-3,4-dihydro-2H-benzo [b][1,4]thiazin-6-yl)-N-((S)-2-((S)-3-hydroxypyrrolidin-1-yl)-1-(m-tolyl)ethyl)-N-methylacetamide]	≤ 0.05 µM
CCC#Cc1cccc([C@@H](CN2CC[C@H](O)C2)N(C)C(=O)Cc2ccc3c(c2)NS(=O)(=O)C3)c1 [Example 37, N-((S)-1-(3-(but-1-yn-1-yl)phenyl)-2-((S)-3-hydroxypyrrolidin-1-yl)ethyl)-2-(2,2-dioxido-1,3-dihydrobenzo[c]isothiazol-6-yl)-N-methylacetamide]	≤ 0.05 µM
CN(C(=O)Cc1ccc2c(c1)NS(=O)(=O)C2)[C@H](CN1CC[C@H](O)C1)c1cccc(-c2ncon2)c1 [Example 186, N-((S)-1-(3-(1,2,4-oxadiazol-3-yl)phenyl)-2-((S)-3-hydroxypyrrolidin-1-yl)ethyl)-2-(2,2-dioxido-1,3-dihydrobenzo[c]isothiazol-6-yl)-N-methylacetamide]	≤ 0.05 µM
CN(C(=O)Cc1ccc2c(c1)NC(=O)C2)[C@H](CN1CC[C@H](F)C1)c1cccc(OCC(N)=O)c1 [Example 30, N-((S)-1-(3-(2-amino-2-oxoethoxy)phenyl)-2-((S)-3-fluoropyrrolidin-1-yl)ethyl)-N-methyl-2-(2-oxoindolin-6-yl)acetamide]	≥ 1 µM
CN(C(=O)Cc1ccc2c(c1)NC(=O)CS2(=O)=O)[C@H](CN1CC[C@H](O)C1)c1cccc(OCC(=O)NS(C)(=O)=O)c1 [Example 174, 2-(1,1-dioxido-3-oxo-3,4-dihydro-2H-benzo[b][1,4]thiazin-6-yl)-N-((S)-2-((S)-3-hydroxypyrrolidin-1-yl)-1-(3-(2-(methylsulfonamido)-2-oxoethoxy)phenyl)ethyl)-N-methylacetamide]	≤ 0.05 µM
CN(C(=O)Cc1ccc2c(c1)NC(=O)CS2)[C@H](CN1CC[C@H](O)C1)c1cccc(C(N)=O)c1 [Example 32, 3-((S)-2-((S)-3-hydroxypyrrolidin-1-yl)-1-(N-methyl-2-(3-oxo-3,4-dihydro-2H-benzo[b][1,4]thiazin-6-yl)acetamido)ethyl)benzamide]	≤ 0.05 µM
CN(C(=O)Cc1ccc2c(c1)CC(=O)N2)[C@H](CN1CC[C@H](O)C1)c1cccc(OCC(=O)O)c1 [Example 169, 2-(3-((S)-2-((S)-3-hydroxypyrrolidin-1-yl)-1-(N-methyl-2-(2-oxoindolin-5-yl)acetamido)ethyl)phenoxy)acetic acid]	≤ 0.05 µM
CN(C(=O)Cc1ccc2ncc(=O)[nH]c2c1)[C@H](CN1CC[C@H](O)C1)c1cccc(C(=O)NCC(F)(F)F)c1 [Example 196, 3-((S)-2-((S)-3-hydroxypyrrolidin-1-yl)-1-(N-methyl-2-(3-oxo-3,4-dihydroquinoxalin-6-yl)acetamido)ethyl)-N-(2,2,2-trifluoroethyl)benzamide]	≤ 0.05 µM
O=C1CS(=O)(=O)c2ccc(CC(=O)N(C3CC3)[C@H](CN3CC[C@H](O)C3)c3cccc(OC(F)(F)F)c3)cc2N1 [Example 139]	≤ 0.05 µM
CN(C(=O)Cc1ccc2c(c1)NC(=O)CS2(=O)=O)C(CN1CCC(O)C1)c1cccc(C2CC2)c1 (stereo in doubt) [Example 150, N-((S)-1-(3-cyclopropylphenyl)-2-((S)-3-hydroxypyrrolidin-1-yl)ethyl)-2-(1,1-dioxido-3-oxo-3,4-dihydro-2H-benzo[b][1,4]thiazin-6-yl)-N-methylacetamide]	≤ 0.05 µM
CN(C(=O)Cc1ccc2ncc(=O)[nH]c2c1)[C@H](CN1CC[C@H](O)C1)c1cccc(C(N)=O)c1 [Example 164, 3-((S)-2-((S)-3-hydroxypyrrolidin-1-yl)-1-(N-methyl-2-(3-oxo-3,4-dihydroquinoxalin-6-yl)acetamido)ethyl)benzamide]	≤ 0.05 µM
C#Cc1cccc([C@@H](CN2CC[C@H](O)C2)N(C)C(=O)Cc2ccc3c(c2)NC(=O)C3)c1 [Example 180, N-((S)-1-(3-ethynylphenyl)-2-((S)-3-hydroxypyrrolidin-1-yl)ethyl)-N-methyl-2-(2-oxoindolin-6-yl)acetamide]	≤ 0.05 µM
Cc1nc(-c2cccc([C@@H](CN3CC[C@H](O)C3)N(C)C(=O)Cc3ccc4c(c3)NS(=O)(=O)C4)c2)no1 [Example 181, 2-(2,2-dioxido-1,3-dihydrobenzo[c]isothiazol-6-yl)-N-((S)-2-((S)-3-hydroxypyrrolidin-1-yl)-1-(3-(5-methyl-1,2,4-oxadiazol-3-yl)phenyl)ethyl)-N-methylacetamide]	≤ 0.05 µM
CN(C(=O)Cc1ccc2c(c1)NC(=O)CO2)[C@H](CN1CC[C@H](O)C1)c1cccc(C(=O)O)c1 [Example 155, 3-((S)-2-((S)-3-hydroxypyrrolidin-1-yl)-1-(N-methyl-2-(3-oxo-3,4-dihydro-2H-benzo[b][1,4]oxazin-6-yl)acetamido)ethyl)benzoic acid]	≤ 0.05 µM
